Like-named read-outs stand apart in the source and are kept apart here. Starred links: 1 amine or outer side, 2 acyl side, 3 side chain; linkers in the order of their positions; H or OH if unused. Non-standard residues stand in square brackets, D forms with d. Residues, ends and D or L forms follow the SMILES beside them. *: point of attachment. X1 = Cc1cc(F)cc(-c2cnc(NCCNC(=O)CCOCCC(=O)*)c(-c3nc4ccc(Cl)cc4[nH]3)c2N2CCC(N)CC2)c1; Dolaproine = CO[C@@H]([C@@H]1CCCN1)[C@@H](C)C(=O)O; Dil = CC[C@H](C)[C@H](NC)[C@@H](CC(=O)O)OC; PABC = O=C(OCc1ccc(N[*:1])cc1)[*:2]; X2 = C[C@@H](N*)[C@@H](O)c1ccccc1; Cya = N[C@@H](CS(=O)(=O)O)C(=O)O; Cit = NC(=O)NCCC[C@H](N)C(=O)O; NMeV = CN[C@H](C(=O)O)C(C)C
Experiments:
Type in all cases: cell-based
[1] = molecular target: T1, SST2 (Homo sapiens, UniProt P30874); experiment: PathHunter CHO-K1 SST2 internalization assay; details: PathHunter CHO-K1 SST2, 90 min
T1 construct: host or cells: PathHunter CHO-K1 SST2 cells
T1 sequence (P30874 whole entry): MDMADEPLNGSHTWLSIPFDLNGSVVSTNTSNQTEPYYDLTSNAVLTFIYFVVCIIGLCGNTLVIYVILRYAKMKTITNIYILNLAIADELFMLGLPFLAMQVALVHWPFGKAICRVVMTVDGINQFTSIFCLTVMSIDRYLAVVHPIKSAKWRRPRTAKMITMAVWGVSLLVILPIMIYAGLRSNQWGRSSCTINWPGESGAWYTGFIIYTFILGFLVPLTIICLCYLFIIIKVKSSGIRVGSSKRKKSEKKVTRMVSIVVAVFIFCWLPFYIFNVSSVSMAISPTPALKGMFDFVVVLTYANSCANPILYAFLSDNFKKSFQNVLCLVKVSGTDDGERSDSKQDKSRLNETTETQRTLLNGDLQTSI
Outline: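 IC50 comes from four-parameter curves on background-corrected duplicates of Beta-Glo luminescence, read after 60 min at room temperature in the dark. Before that, CHO-K1 SST2 internalization cells (48 h post-seeding) received SMDC as eleven threefold dilutions, 10 uM highest final, for 90 min at 37 C.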

[2] = molecular target: T2, human somatostatin receptor subtype 2 (Homo sapiens, UniProt P30874); experiment: Functional cAMP assay for SSTR2 agonists (HTRF) in CHO-K1 cells; details: CHO-K1 cells stably expressing human SST2, 20 min
T2 construct: expressed in transfected cells
T2 sequence (P30874 whole entry): as above
Outline: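 Agonism scored as loss of NKH477 (1.6 μM)-driven cAMP, with IBMX present, after 20 min, 37° C. exposure of stably transfected CHO-K1 cells to compound dilutions (typically 0-10,000 nM). Lysates read by time-resolved FRET; cAMP interpolated from standard curve and EC50 derived.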

[3] = test system: NCI-H524 (ATCC) human small cell lung cancer cells
Outline: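 CellTiter-Glo luminescence after a 2 h SMDC pulse (top dose 1 uM, 2-fold dilutions, 11 points), medium wash, then 70 h recovery. Cells were seeded at 5,000/well and dosed 24 h later. % inhibition vs control gave IC50 via four-parameter fit.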

[4] = 2 h treatment, washout, additional 70 h, read-out: H524 EC50

For `CC[C@H](C)[C@@H]([C@@H](CC(=O)N1CCC[C@H]1[C@H](OC)[C@@H](C)C(=O)N[C@H](C)[C@@H](O)c1ccccc1)OC)N(C)C(=O)[C@@H](NC(=O)[C@H](C(C)C)N(C)C(=O)OCc1ccc(NC(=O)[C@H](CCCNC(N)=O)NC(=O)[C@@H](NC(=O)CCC(=O)NCCNc2ncc(-c3cc(C)cc(F)c3)c(N3CCC(N)CC3)c2-c2nc3ccc(Cl)cc3[nH]2)C(C)C)c(O[C@@H]2O[C@H](C(=O)O)[C@@H](O)[C@H](O)[C@H]2O)c1)C(C)C` [Compound 75], the EC50 ([1]; read-out: Internalization EC50) was 8.9 nM, the EC50 ([2]; read-out: hSST2 cAMP Avg EC50) was 0.54 nM and the EC50 ([3]; 2 h) was 16.5 nM.
For `COc1cc2cc(c1Cl)N(C)C(=O)C[C@H](OC(=O)[C@H](C)N(C)C(=O)CCSSCCNC(=O)CCOCCNC(=O)C[C@@H](N)C(=O)NCCNc1ncc(-c3cc(C)cc(F)c3)c(N3CCC(N)CC3)c1-c1nc3ccc(Cl)cc3[nH]1)[C@]1(C)O[C@H]1[C@H](C)[C@@H]1C[C@@](O)(NC(=O)O1)[C@H](OC)/C=C/C=C(\C)C2` [Compound 77], the EC50 ([1]; read-out: Internalization EC50) was 5.2 nM, the EC50 ([2]; read-out: hSST2 cAMP Avg EC50) was 0.21 nM and the EC50 ([3]; 2 h) was 17 nM.
With `CC[C@@]1(O)C(=O)OCc2c1cc1n(c2=O)Cc2c-1nc1cc(F)c(C)c3c1c2[C@@H](NC(=O)CCOCCC(=O)NCCNc1ncc(-c2cc(C)cc(F)c2)c(N2CCC(N)CC2)c1-c1nc2ccc(Cl)cc2[nH]1)CC3` [Compound 78, N-{2-[4-(4-amino-1-piperidyl)-3-(6-chloro-1H-1,3-benzimidazol-2-yl)-5-(3-fluoro-5-tolyl)-2-pyridylamino]ethyl}3-(2-{N-(10S,23S)-10-ethyl-18-fluoro-10-hydroxy-19-methyl-5,9-dioxo-8-oxa-4,15-diazahexacyclo[14.7.1.0^2,^14.0^4,^13.0^6,^11.0^20,^24]tetracosa-1,6(11),12,14,16,18,20(24)-heptaen-23-ylcarbamoyl}ethoxy)propionamide] the EC50 ([1]; Internalization EC50 (nM)) was 0.77 nM, the EC50 ([2]; hSST2 cAMP Avg EC50 (nM)) was 0.23 nM and the EC50 [3, 4] was 170 nM.
`CC[C@H](C)[C@@H]([C@@H](CC(=O)N1CCC[C@H]1[C@H](OC)[C@@H](C)C(=O)N[C@H](C)[C@@H](O)c1ccccc1)OC)N(C)C(=O)[C@@H](NC(=O)[C@H](C(C)C)N(C)C(=O)OCc1ccc(NC(=O)[C@H](CCCNC(N)=O)NC(=O)[C@@H](NC(=O)CCOCCC(=O)NCCNc2ncc(-c3cc(C)cc(F)c3)c(N3CCC(N)CC3)c2-c2nc3ccc(Cl)cc3[nH]2)C(C)C)cc1C(=O)NCCN)C(C)C` [Compound 82] was tested, and the EC50 ([1]; read-out: Internalization EC50) was 6 nM, the EC50 ([2]; read-out: hSST2 cAMP Avg EC50) was 0.31 nM and the EC50 ([3]; 2 h) was 0.79 nM.
`CC[C@H](C)[C@@H]([C@@H](CC(=O)N1CCC[C@H]1[C@H](OC)[C@@H](C)C(=O)N[C@H](C)[C@@H](O)c1ccccc1)OC)N(C)C(=O)[C@@H](NC(=O)[C@H](C(C)C)N(C)C(=O)OCc1ccc(NC(=O)[C@H](CCCNC(N)=O)NC(=O)[C@@H](NC(=O)[C@H](CS(=O)(=O)O)NC(=O)CCOCCC(=O)NCCNc2ncc(-c3cc(C)cc(F)c3)c(N3CCC(N)CC3)c2-c2nc3ccc(Cl)cc3[nH]2)C(C)C)cc1)C(C)C` [Compound 83] (X1-[Cya]V[Cit][PABC][NMeV]V[Dil][Dolaproine]-X2) showed an EC50 ([1]; read-out: Internalization EC50) of 2.9 nM, an EC50 ([2]; read-out: hSST2 cAMP Avg EC50) of 0.11 nM and an EC50 ([3]; 2 h) of 20 nM.
`CC[C@H](C)[C@@H]([C@@H](CC(=O)N1CCC[C@H]1[C@H](OC)[C@@H](C)C(=O)N[C@H](C)[C@@H](O)c1ccccc1)OC)N(C)C(=O)[C@@H](NC(=O)[C@H](C(C)C)N(C)C(=O)OCc1ccc(NC(=O)[C@H](CCCNC(N)=O)NC(=O)[C@@H](NC(=O)CCOCCNCCNc2ncc(-c3cc(C)cc(F)c3)c(N3CCC(N)CC3)c2-c2nc3ccc(Cl)cc3[nH]2)C(C)C)cc1)C(C)C` [Compound 84] gave an EC50 ([1]; read-out: Internalization EC50) of 9.7 nM, an EC50 ([2]; read-out: hSST2 cAMP Avg EC50) of 0.51 nM and an EC50 ([3]; 2 h) of 24 nM.
`CC[C@H](C)[C@@H]([C@@H](CC(=O)N1CCC[C@H]1[C@H](OC)[C@@H](C)C(=O)N[C@H](C)[C@@H](O)c1ccccc1)OC)N(C)C(=O)[C@@H](NC(=O)[C@H](C(C)C)N(C)C(=O)OCc1ccc(NC(=O)[C@H](C)NC(=O)[C@@H](NC(=O)CCOCCOCCOCCOCCC(=O)NCCNc2ncc(-c3cc(C)cc(F)c3)c(N3CCC(N)CC3)c2-c2nc3ccc(Cl)cc3[nH]2)C(C)C)cc1C(=O)NCCN)C(C)C` [Compound 85] was tested, and the EC50 ([1]; read-out: Internalization EC50) was 13 nM, the EC50 ([2]; read-out: hSST2 cAMP Avg EC50) was 0.25 nM and the EC50 ([3]; 2 h) was 2.2 nM.
`CC[C@H](C)[C@@H]([C@@H](CC(=O)N1CCC[C@H]1[C@H](OC)[C@@H](C)C(=O)N[C@H](C)[C@@H](O)c1ccccc1)OC)N(C)C(=O)[C@@H](NC(=O)[C@H](C(C)C)N(C)C(=O)OCc1ccc(NC(=O)[C@H](C)NC(=O)[C@@H](NC(=O)CCOCCC(=O)NCCNc2ncc(-c3cc(C)cc(F)c3)c(N3CCC(N)CC3)c2-c2nc3ccc(Cl)cc3[nH]2)C(C)C)cc1C(=O)NCCN)C(C)C` [Compound 86] was tested, and the EC50 ([1]; read-out: Internalization EC50) was 15 nM, the EC50 ([2]; read-out: hSST2 cAMP Avg EC50) was 0.36 nM and the EC50 ([3]; 2 h) was 1.1 nM.
Compound `CC[C@H](C)[C@@H]([C@@H](CC(=O)N1CCC[C@H]1[C@H](OC)[C@@H](C)C(=O)N[C@H](C)[C@@H](O)c1ccccc1)OC)N(C)C(=O)[C@@H](NC(=O)[C@H](C(C)C)N(C)C(=O)OCc1ccc(NC(=O)[C@H](CCCNC(N)=O)NC(=O)[C@@H](CC(=O)CCOCCNCCNc2ncc(-c3cc(C)cc(F)c3)c(N3CCC(N)CC3)c2-c2nc3ccc(Cl)cc3[nH]2)C(C)C)cc1C(=O)NCCN)C(C)C` [Compound 87] has an EC50 ([1]; read-out: Internalization EC50) of 26 nM, an EC50 ([2]; read-out: hSST2 cAMP Avg EC50) of 0.4 nM and an EC50 ([3]; 2 h) of 42 nM.
For `CC[C@@]1(O)C(=O)OCc2c1cc1n(c2=O)Cc2c-1nc1cc(F)c(C)c3c1c2[C@@H](NC(=O)OCc1ccc(NC(=O)[C@H](CCCNC(N)=O)NC(=O)[C@@H](NC(=O)CCOCCC(=O)NCCNc2ncc(-c4cc(C)cc(F)c4)c(N4CCC(N)CC4)c2-c2nc4ccc(Cl)cc4[nH]2)C(C)C)cc1)CC3` [Compound 88], the EC50 ([1]; Internalization EC50 (nM)) was 1.3 nM, the EC50 ([2]; hSST2 cAMP Avg EC50 (nM)) was 0.3 nM and the EC50 [3, 4] was 55 nM.
With `CC[C@H](C)[C@@H]([C@@H](CC(=O)N1CCC[C@H]1[C@H](OC)[C@@H](C)C(=O)N[C@H](C)[C@@H](O)c1ccccc1)OC)N(C)C(=O)[C@@H](NC(=O)[C@H](C(C)C)N(C)C(=O)OCc1ccc(NC(=O)[C@H](C)NC(=O)[C@@H](NC(=O)CCOCCNCCNc2ncc(-c3cc(C)cc(F)c3)c(N3CCC(N)CC3)c2-c2nc3ccc(Cl)cc3[nH]2)C(C)C)cc1C(=O)NCCN)C(C)C` [Compound 89] the EC50 ([1]; read-out: Internalization EC50) was 66 nM, the EC50 ([2]; read-out: hSST2 cAMP Avg EC50) was 0.71 nM and the EC50 ([3]; 2 h) was 60 nM.
`CC[C@@]1(O)C(=O)OCc2c1cc1n(c2=O)Cc2c-1nc1cc(F)c(C)c3c1c2[C@@H](NC(=O)OCc1ccc(NC(=O)[C@H](CCCNC(N)=O)NC(=O)[C@@H](NC(=O)CCOCCC(=O)NCCNc2ncc(-c4cc(C)cc(F)c4)c(N4CCC(N)CC4)c2-c2nc4ccc(Cl)cc4[nH]2)C(C)C)cc1C(=O)NCCN)CC3` [Compound 90] gave an EC50 ([1]; Internalization EC50 (nM)) of 4.8 nM, an EC50 ([2]; hSST2 cAMP Avg EC50 (nM)) of 0.22 nM and an EC50 [3, 4] of 71 nM.
In the case of `CC[C@@]1(O)C(=O)OCc2c1cc1n(c2=O)Cc2c-1nc1cc(F)c(C)c3c1c2[C@@H](NC(=O)OCc1ccc(NC(=O)[C@H](CCCNC(N)=O)NC(=O)[C@@H](NC(=O)CCOCCOCCOCCOCCC(=O)NCCNc2ncc(-c4cc(C)cc(F)c4)c(N4CCC(N)CC4)c2-c2nc4ccc(Cl)cc4[nH]2)C(C)C)cc1C(=O)NCCN)CC3` [Compound 91], the EC50 ([1]; Internalization EC50 (nM)) is reported as 5.6 nM, the EC50 ([2]; hSST2 cAMP Avg EC50 (nM)) is reported as 0.18 nM and the EC50 [3, 4] is reported as 190 nM.
`CC[C@H](C)[C@@H]([C@@H](CC(=O)N1CCC[C@H]1[C@H](OC)[C@@H](C)C(=O)N[C@H](C)[C@@H](O)c1ccccc1)OC)N(C)C(=O)[C@@H](NC(=O)[C@H](C(C)C)N(C)C(=O)OCc1ccc(NC(=O)[C@H](CCCNC(N)=O)NC(=O)[C@@H](NC(=O)CCOCCOCCOCCOCCNCCNc2ncc(-c3cc(C)cc(F)c3)c(N3CCC(N)CC3)c2-c2nc3ccc(Cl)cc3[nH]2)C(C)C)cc1)C(C)C` [Compound 92] gave an EC50 ([1]; read-out: Internalization EC50) of 27 nM, an EC50 ([2]; read-out: hSST2 cAMP Avg EC50) of 0.56 nM and an EC50 ([3]; 2 h) of 110 nM.

Source: patent US12134610B2, “Somatostatin subtype-2 receptor (SST2R) targeted therapeutics and uses thereof” (priority 2022, dated 2024)
